Measurements: paper PMC4179164, “Ophiobolin A from Bipolaris oryzae Perturbs Motility and Membrane Integrities of Porcine Sperm and Induces Cell Death on Mammalian Somatic Cell Lines” (Toxins, 2014)
Converted amounts (≈) assume the structure as drawn.

Columns and labels:
boar spermatozoa [1] = test: Dissipation of mitochondrial membrane potential (ΔΨm), JC-1 staining; format: cell-based
Procedure: The membrane-permeable 5,5',6,6'-tetrachloro-1,1',3,3'-tetraethylbenzimidazolylcarbocyanine iodide (JC-1) dye is widely used in apoptosis studies to monitor mitochondrial health. […] Therefore, the loss of ΔΨm was seen as decrease in orange fluorescence. In our cases, the staining for […] with JC-1 at 37 °C was enough to get the energized mitochondria stained orange and the plasma membrane green. This short staining was empirically optimized for getting the most reproducible differences between vehicle and toxin exposed sperm cells in Hoornstra et al.. After 2 min incubation, OPA completely depolarized the mitochondrial membrane of the sperm cells at the concentration of 1.25 μg mL^−1 and the exposed cells have already lost approximately 50% of their bright fluorescing mitochondria at the concentration of 500 ng mL^−1 (Figure 3, Table 1).
The dissipation of the ΔΨm on static cells at room temperature was visualized by 5,5',6,6'-tetrachloro-1,1',3,3'-tetraethylbenzimidazolylcarbocyanine iodide (JC-1) (Molecular Probes, Eugene, OR, USA) staining according to Hoornstra et al. with minor modifications as follows: 200 μL of the boar semen exposed with the final OPA concentration of 2.5 μg mL^−1, 1.25 μg mL^−1, 0.5 μg mL^−1 and 0.125 μg mL^−1 was incubated at 37 °C for 2 min, stained with 0.3 μL of JC-1 (1 mg mL^−1 in DMSO) followed by another 2 min at 37 °C and viewed using an epifluorescence microscope (Eclipse E600, Nikon, Tokyo, Japan). All assays (PI + CAM and JC-1 staining) were performed in triplicate and for each sample five microscopic fields containing ca. 20 cells were inspected.

boar spermatozoa [2] = test: Shivering tail beating induction in exposed sperm cells; format: cell-based
Procedure: (§1) This phenomenon may indicate that the cell still produce ATP and NADH in the cytoplasm after the OPA treatment, which differs from the effect caused by cation channel forming alamethicin, which depletes the sperm cells from motility, plasma membrane integrity as well as NADH and ATP production at similar concentrations. To confirm the effect of OPA on the plasma membrane permeability, the viability staining with propidium iodide (PI) and calcein-AM was performed after one day incubation at room temperature, (similar conditions as the JC-1 staining) where the EC50 value appeared at 1.6 μg mL^−1, over twice the concentrations that depolarized the mitochondria (Table 1).
Microscopic area containing shivering sperm cell is enlarged at top right of the picture.

[3] = system: human umbilical vein endothelial cells (HUVECs); details: cited from earlier work
boar spermatozoa [4] = test: Cell membrane permeability assay on static sperm cells (PI and calcein-AM staining); format: cell-based; details: 24 h, read-out: Toxic endpoint EC50, Permeability to PI on static cells
Procedure: as §1
Cell membrane permeability assay on motile sperm cells was inspected by staining with PI (Molecular Probes, Eugene, OR, USA) in sperm cells induced to swim by shaking at 37 °C. […] This suspension was incubated for 15 min at 37 °C in dark and measured using a microplate reader (Fluoroskan Ascent, Thermo Scientific, Vantaa, Finland) at excitation and emission wavelengths of 544 nm and 600 nm, respectively. For observing plasma membrane damage by PI staining frozen-thawed semen was used as a positive control (for mortality of 100%) representing the maximal fluorescence emitted by the cells permeable to PI and Dulbeco’s phosphate buffered saline was applied as background control (blank). […]

L1210 cell line = details: cited from earlier work
[5] = system: feline fetus lung (FFL) cells; test: Somatic cell toxicity assay (resazurin reduction), FFL; format: cell-based; details: Felis catus, read-out: IC50, cell proliferation
Procedure: Viability assays, based on resazurin-resorufin transformation, represent excellent correlation to generally used reference assays, such as formazan- and tritiated thymidine based methods. In our experiments, proliferating murine neuroblastoma (MNA), feline fetus lung (FFL) and porcine kidney (PK-15) cells were treated with OPA. […] These values were remarkably less than the concentrations causing sperm toxicity and motility inhibition.
Cytotoxicity against somatic cells was tested with feline fetus lung cells (FFL) cultivated as described by Andersson et al. and murine neuroblastoma cells (MNA) as described by Kulonen et al. as well as porcine kidney tubular epithelial cell line (PK-15), cultured as reported earlier. All somatic cell lines were maintained in an atmosphere of 95% air, 5% CO2 and 95% relative humidity at 37 °C on RPMI 1640 (complete medium) in a cell culture cabinet (Heracell 150i; Thermo Fisher Scientific, Vantaa, Finland). The detached cells were seeded onto 96 well microtiter plates and exposed to the purified OPA, the final concentration of which ranged from 48.8 ng mL^−1 to 25 μg mL^−1 containing 10 levels in methanol. […] Then, the plates were analyzed by a microtiter plate reader (Fluoroskan Ascent, Thermo Scientific, Vantaa, Finland) at the excitation and emission wavelengths of 544 nm and 590 nm, respectively. […]

For `CC(C)=C[C@H]1C[C@H](C)[C@]2(CC[C@]3(C)C[C@H]4[C@H](C(=O)C[C@@]4(C)O)/C(C=O)=C\C[C@H]32)O1` [OPA, ophiobolin A], the “Effect on JC-1 mitochondrial fluorescence” value (boar spermatozoa [1]; 125 ng mL^−1 OPA, JC-1 staining) was “minimal difference compared to the untreated control”, the “Loss of bright fluorescing mitochondria” value (boar spermatozoa [1]; 500 ng mL^−1 OPA, JC-1 staining) was “approximately 50%” and the “Concentration completely depolarizing the mitochondrial membrane of the sperm cells” value (boar spermatozoa [1]; JC-1 staining, 2 min incubation at 37 °C) was 1.25 µg/mL. The EC50 (boar spermatozoa [1]; Spermatozoa, read-out: Toxic endpoint EC50, Dissipation of ΔΨm) was 0.5 µg/mL (≈ 1.25 µM), the EC50 (boar spermatozoa [2]; Spermatozoa, read-out: Toxic endpoint EC50, Shivering tail beating induction) was 0.5 µg/mL (≈ 1.25 µM) and the “Concentration inducing shivering tail beating with depolarisation of mitochondria” value (boar spermatozoa [2]; exposure at room temperature) was under 1 µg/mL. The “IC50, reduction in the amount of viable cells” value [3] was 32 µg/mL, the EC50 (boar spermatozoa [4]) was 1.6 µg/mL (≈ 3.99 µM) and the “IC50, induced cell death” value (L1210 cell line) was 120 µg/mL (≈ 300 µM). For the same molecule, the IC50 [5] was 0.0488 µg/mL (≈ 0.122 µM).
